The target in one data set is MC4 receptor (Homo sapiens, UniProt P32245). Nature of the data set: MC4 EC50 functional potency (protocol E of US2005/0176772 / WO 2005/077935). The class given is cell-based. The method, then:
The compounds of formula (I) of the present invention have utility as MCR4 agonists in the treatment of various disease states.
MC5 and MC4 EC50 activity was determined as described by assay protocols D and E, respectively, in US2005/0176772 (pages 28-30).

The target of another data set is T1, MC4 receptor (MC4R) (Homo sapiens, UniProt P32245).
T1 construct: expressed in transfected cells; host or cells: CHO-CRE MC4R cells (membranes)
T1 sequence (P32245 whole entry): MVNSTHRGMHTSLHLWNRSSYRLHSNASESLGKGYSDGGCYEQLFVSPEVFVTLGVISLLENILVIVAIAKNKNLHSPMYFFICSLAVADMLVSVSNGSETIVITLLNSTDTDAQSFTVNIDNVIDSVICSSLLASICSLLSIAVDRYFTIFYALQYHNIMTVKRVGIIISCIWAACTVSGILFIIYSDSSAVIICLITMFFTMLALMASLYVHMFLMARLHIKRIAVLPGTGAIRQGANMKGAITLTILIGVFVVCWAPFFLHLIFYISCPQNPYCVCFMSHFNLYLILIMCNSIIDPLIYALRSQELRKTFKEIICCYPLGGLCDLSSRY
Nature of the data set: Nle4, D-Phe7-α-MSH inhibition at the MC4 receptor (competition binding, SPA, CHO-CRE MC4R membranes). The text has this:
Nle4, D-Phe7-α-MSH Inhibition at the MC4 Receptor
Nle4, D-Phe7-α-MSH is a stable analogue of melanocyte-stimulating hormone (MSH), which is an agonist at the MC4 receptor (MC4R). Compounds can be evaluated for their ability to inhibit Nle4, D-Phe7-α-MSH binding to membranes from cells expressing the MC4R using a competition binding assay versus [^125I] Nle4, D-Phe7-α-MSH.
Cells expressing the MC4R were subject to homogenisation and the membrane fragment isolated by differential centrifugation. CHO-CRE MC4R cell membranes were coupled to PVT-PEI-WGA SPA Beads type A for 2 hours, spun at 1000 RPM for 5 min and suspended to a concentration of 300 ug bead/ml (0.15 ug membrane, 15 ug bead per well). Bead/membrane mix was incubated with 0.06 nM [^125I] Nle4, D-Phe7-α-MSH and 11 half-log concentrations of competitor ligand, in duplicate, in a total volume of 50 μl buffer per well (25 mM HEPES, 1 mM MgCl2, 2.5 mM CaCl2, 1% Pluronic F68, 1 complete EDTA protease inhibitor tablet/50 ml pH7). Non-specific binding was determined by the inclusion of 100 nM SHU9119. The reaction was initiated by the addition of bead/membranes and plates were incubated at room temperature for 12 hours (the first hour on a plate shaker), after which the amount of radioactivity present was determined using a Wallac plate counter. Ki values were determined by data analysis using appropriate software.

Another data set deals with T2, MC3 receptor (MC3R) (Homo sapiens, UniProt P41968).
T2 construct: expressed in transfected cells; host or cells: CHO-CRE MC3R cells (membranes)
T2 sequence (P41968 whole entry): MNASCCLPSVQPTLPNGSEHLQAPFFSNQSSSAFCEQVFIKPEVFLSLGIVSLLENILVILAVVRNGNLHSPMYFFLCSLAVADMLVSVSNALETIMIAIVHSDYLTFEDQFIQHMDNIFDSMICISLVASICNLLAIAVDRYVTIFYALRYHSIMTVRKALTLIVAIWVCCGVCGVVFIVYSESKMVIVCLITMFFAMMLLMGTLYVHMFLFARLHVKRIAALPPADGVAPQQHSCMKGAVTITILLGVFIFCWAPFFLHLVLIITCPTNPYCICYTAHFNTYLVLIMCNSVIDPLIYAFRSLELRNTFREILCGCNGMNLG
Nature of the data set: Nle4, D-Phe7-α-MSH inhibition at the MC3 receptor (competition binding, SPA, CHO-CRE MC3R membranes). The source says: Nle4, D-Phe7-α-MSH Inhibition at the MC3 Receptor
Nle4, D-Phe7-α-MSH is a stable analogue of melanocyte-stimulating hormone (MSH), which is an agonist at the MC3 receptor (MC3R). Compounds can be evaluated for their ability to inhibit Nle4, D-Phe7-α-MSH binding to membranes from cells expressing the MC3R using a competition binding assay versus [^125I] Nle4, D-Phe7-α-MSH.
Cells expressing the MC3R were subject to homogenisation and the membrane fragment isolated by differential centrifugation. CHO-CRE MC3R cell membranes were coupled to PVT-PEI-WGA SPA Beads type A for 2 hours, spun at 1000 RPM for 5 mins and suspended to a final assay concentration of 800 ug bead/ml (1.2 ug membrane, 40 ug bead per well). Bead/membrane mix was incubated with 0.06 nM [^125I] Nle4, D-Phe7-α-MSH and 11 half-log concentrations of competitor ligand, in duplicate, in a total volume of 50 μl buffer per well (25 mM HEPES, 1 mM MgCl2, 2.5 mM CaCl2, 1% Pluronic F68, 1 complete EDTA protease inhibitor tablet/50 ml pH7). Non-specific binding was determined by the inclusion of 100 nM SHU9119. The reaction was initiated by the addition of bead/membranes and plates were incubated at room temperature for 12 hours (the first hour on a plate shaker), after which the amount of radioactivity present was determined using a Wallac plate counter. Ki values were determined by data analysis using appropriate software.

For another data set, the target named is T3, CYP3A4 (Homo sapiens, UniProt P08684).
T3 construct: utilizes human liver microsomes together with isoform-specific clinical drug probes; from tissue; host or cells: human liver microsomes
T3 sequence (P08684 whole entry, canonical isoform): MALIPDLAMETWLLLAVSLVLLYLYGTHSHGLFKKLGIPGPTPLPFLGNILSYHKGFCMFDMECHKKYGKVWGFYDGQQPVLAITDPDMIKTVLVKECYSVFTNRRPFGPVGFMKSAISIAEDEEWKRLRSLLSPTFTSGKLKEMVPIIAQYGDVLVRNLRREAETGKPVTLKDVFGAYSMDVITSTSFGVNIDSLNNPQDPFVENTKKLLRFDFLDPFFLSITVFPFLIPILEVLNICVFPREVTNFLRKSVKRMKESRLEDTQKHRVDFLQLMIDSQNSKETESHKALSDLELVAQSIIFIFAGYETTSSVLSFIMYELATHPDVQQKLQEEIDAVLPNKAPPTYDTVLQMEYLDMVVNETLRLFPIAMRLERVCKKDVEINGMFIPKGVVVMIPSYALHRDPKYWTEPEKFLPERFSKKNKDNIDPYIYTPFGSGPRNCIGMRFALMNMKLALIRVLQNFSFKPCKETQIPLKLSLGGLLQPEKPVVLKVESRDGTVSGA
Nature of the data set: High density DDI 3 μM cocktail screen in human liver microsomes, midazolam probe. The note with it: human, liver microsomes, probe midazolam, read-out: % inhibition 3A4 @ 3 μM. The class given is in vitro ADME. The gist of the method: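 Pooled human liver microsomes incubated with isoform-specific clinical probe substrates as a cocktail (midazolam for CYP3A4), with or without test compound at 3 μM. Metabolite formation followed over time by LC-MS/MS. Inhibition expressed as a single-point percentage.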
For orientation: Liver microsomes are a subcellular fraction often used to study metabolism.

A short description of data set [1]: In vitro metabolism rate determination, human liver microsome (HLM) assay. The class given is in vitro ADME. The note with it: human, liver microsomes, read-out: HLM: Clint, app. The essentials:
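Human liver microsomes at 0.5 nmol cytochrome P450/ml with 1 μM substrate, pre-warmed 5 min at 37° C, reaction started with NADP; samples taken 0–60 min and terminated. Substrate loss measured; first-order rate constant from log-linear regression converted to half-life or Clint (μl/min/mg protein).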

We go through 14 molecules from US8592403B2, “Diazepine and diazocane compounds as MC4 agonists” (Pfizer Limited, priority 2008, dated 2013).

Chain of MC4 receptor (P32245 whole entry): as the sequence (P32245 whole entry) above

Consider `COc1ccc(C2CCCN(C(=O)[C@@H]3CN(c4ccc(C#N)nn4)C[C@H]3c3ccc(F)cc3F)CCN2C(C)=O)cc1` (mixture of isomers) [Example 1, 6-[(3S,4R)-3-{[4-acetyl-5-(4-methoxyphenyl)-1,4-diazocan-1-yl]carbonyl}-4-(2,4-difluorophenyl)pyrrolidin-1-yl]pyridazine-3-carbonitrile], for which it took 159 nM to reach a half-maximal effect on MC4 receptor (EC50). Also, the values for the Ki at MC4 receptor (MC4R) and at MC3 receptor (MC3R) were 2090 nM and 2980 nM, respectively. Moreover, the inhibition (in general, how much of the control response was suppressed) at 3 µM on CYP3A4 is 63%. Besides, the microsomal CLint at 1 μM in data set [1] came out at 31 µL/min/mg.

As for `COC(=O)N1CCN(C(=O)[C@@H]2CN(c3ccc(C#N)nn3)C[C@H]2c2ccc(F)cc2F)CCCC1c1ccc(OC)cc1` (mixture of isomers) [Example 48], on MC4 receptor, the EC50 – broadly, the concentration giving half of the maximal effect – was 85.5 nM. Moreover, the Ki (commonly a dissociation constant, usually derived from enzyme kinetics or from competition with a known ligand) on MC4 receptor (MC4R) was 585 nM; at MC3 receptor (MC3R), 2660 nM. Also, the inhibition at 3 µM at CYP3A4 was found to be 61.5%. Further, the microsomal CLint at 1 μM in data set [1] was determined as 55 µL/min/mg.

On to `COc1ccc([C@@H]2CN(c3ccc(C#N)nn3)C[C@H]2C(=O)N2CCCC(c3ccc(Cl)cc3)N(S(C)(=O)=O)CC2)c(F)c1` (mixture of isomers) [Example 105, 6-[(3S,4R)-3-{[5-(4-chlorophenyl)-4-(methylsulfonyl)-1,4-diazocan-1-yl]carbonyl}-4-(2-fluoro-4-methoxyphenyl)pyrrolidin-1-yl]pyridazine-3-carbonitrile], for which, at MC4 receptor, the EC50 worked out at 36.1 nM. Besides, the Ki is 92.2 nM on MC4 receptor (MC4R) and 571 nM on MC3 receptor (MC3R). Besides, the inhibition at 3 µM on CYP3A4 stood at 37.5%. Besides, the microsomal CLint at 1 μM in data set [1] came out at 42 µL/min/mg.

Take `CC(C)(C)N1C[C@@H](C(=O)N2CCC[C@@H](c3ccc(Cl)cc3)N(C(=O)CC(F)(F)F)CC2)[C@H](c2ccc(F)cc2F)C1` [Example 12]: the EC50 on MC4 receptor came out at 32.8 nM. In addition, the Ki was 807 nM at MC4 receptor (MC4R) and 4150 nM at MC3 receptor (MC3R). For the same molecule, the inhibition at 3 µM at CYP3A4 is 34%. In addition, the microsomal CLint at 1 μM in data set [1] worked out at 17 µL/min/mg.

On MC4 receptor, `COc1ccc([C@@H]2CN(c3ccc(=O)[nH]n3)C[C@H]2C(=O)N2CCCC(c3ccc(Cl)cc3)N(S(C)(=O)=O)CC2)c(F)c1` (single isomer, unassigned) [Example 113] had an EC50 of 12.7 nM. Further, the results for the Ki on MC4 receptor (MC4R) and on MC3 receptor (MC3R) were 50.5 nM and 1300 nM, respectively. Moreover, the inhibition at 3 µM on CYP3A4 stood at 44.3%. The microsomal CLint at 1 μM in data set [1] was determined as 24.8 µL/min/mg.

Molecule `CC(=O)N1CCN(C(=O)[C@@H]2CN(c3cccnn3)C[C@H]2c2ccc(F)cc2F)CCC1c1ccccc1` (mixture of isomers) [Example 3] showed an EC50 at MC4 receptor of 42.4 nM. Moreover, the figures for the Ki on MC4 receptor (MC4R) and at MC3 receptor (MC3R) were 521 nM and 3130 nM, respectively. Further, the inhibition at 3 µM at CYP3A4 is 30%. In data set [1], the microsomal CLint at 1 μM is 60 µL/min/mg.

Take `COC(=O)N1CCN(C(=O)[C@@H]2CN(c3ccc(=O)[nH]n3)C[C@H]2c2ccc(OC)cc2F)CCC[C@H]1c1ccc(Cl)cc1` [Example 69, methyl 8S-(4-chlorophenyl)-4-{[(3S,4R)-4-(2-fluoro-4-methoxyphenyl)-1-(6-oxo-1,6-dihydropyridazin-3-yl)pyrrolidin-3-yl]carbonyl}-1,4-diazocane-1-carboxylate]: the EC50 at MC4 receptor came out at 7.6 nM. Moreover, the values for the Ki at MC4 receptor (MC4R) and on MC3 receptor (MC3R) were 16.4 nM and 990 nM, respectively. The inhibition at 3 µM at CYP3A4 turned out to be 53%. Moreover, in data set [1], the microsomal CLint at 1 μM is 8 µL/min/mg.

`COC(=O)N1CCN(C(=O)[C@@H]2CN(c3ccc(C#N)nn3)C[C@H]2c2ccc(Cl)cn2)CCC[C@H]1c1ccc(Cl)cc1` [Example 98, methyl 8S-(4-chlorophenyl)-4-{[(3S,4S)-4-(5-chloropyridin-2-yl)-1-(6-cyanopyridazin-3-yl)pyrrolidin-3-yl]carbonyl}-1,4-diazocane-1-carboxylate] had an EC50 on MC4 receptor of 5.26 nM. Moreover, the inhibition constant (Ki) worked out at 52 nM at MC4 receptor (MC4R) and 201 nM on MC3 receptor (MC3R). Also, on CYP3A4, the inhibition at 3 µM amounted to 46.9%. For the same molecule, in data set [1], the microsomal CLint at 1 μM turned out to be 13.9 µL/min/mg.

`CCCC(=O)N1CCN(C(=O)[C@@H]2CN(C(C)(C)C)C[C@H]2c2ccc(F)cc2F)CCCC1c1ccccc1` (mixture of isomers) [Example 104, 1-{[(3S,4R)-1-tert-butyl-4-(2,4-difluorophenyl)pyrrolidin-3-yl]carbonyl}-4-butyryl-5-phenyl-1,4-diazocane] gave an EC50 on MC4 receptor of 18 nM. Also, the Ki at MC4 receptor (MC4R) amounted to 583 nM; at MC3 receptor (MC3R), 9080 nM. Moreover, the inhibition at 3 µM on CYP3A4 was 48%. Further, the microsomal CLint at 1 μM in data set [1] was 69.2 µL/min/mg.

On MC4 receptor, `COc1ccc([C@@H]2CN(c3ccc(=O)[nH]n3)C[C@H]2C(=O)N2CCCC(c3ccc(Cl)cc3)N(S(C)(=O)=O)CC2)c(F)c1` (mixture of isomers) [Example 111, 6-[(3S,4R)-3-{[5-(4-chlorophenyl)-4-(methylsulfonyl)-1,4-diazocan-1-yl]carbonyl}-4-(2-fluoro-4-methoxyphenyl)pyrrolidin-1-yl]pyridazin-3(2H)-one] yielded an EC50 of 14.7 nM. The Ki at MC4 receptor (MC4R) was 68.4 nM; on MC3 receptor (MC3R), 942 nM. Also, on CYP3A4, the inhibition at 3 µM was determined as 66.5%. For the same molecule, the microsomal CLint at 1 μM in data set [1] is 24 µL/min/mg.

Regarding `COC(=O)N1CCN(C(=O)[C@@H]2CN(c3ccc(=O)[nH]n3)C[C@H]2c2ccc(OC)cc2F)CCCC1c1ccc(Cl)cc1` (mixture of isomers) [Example 112, methyl 8-(4-chlorophenyl)-4-{[(3S,4R)-4-(2-fluoro-4-methoxyphenyl)-1-(6-oxo-1,6-dihydropyridazin-3-yl)pyrrolidin-3-yl]carbonyl}-1,4-diazocane-1-carboxylate], the EC50 at MC4 receptor came out at 3.38 nM. The Ki on MC4 receptor (MC4R) came to 17.4 nM; on MC3 receptor (MC3R), 404 nM. In addition, the inhibition at 3 µM at CYP3A4 is 65.5%. The microsomal CLint at 1 μM in data set [1] is 15 µL/min/mg.

For the molecule `COC(=O)N1CCN(C(=O)[C@@H]2CN(c3ccc(Cl)nn3)C[C@H]2c2ccc(OC)cc2F)CCCC1c1ccc(Cl)cc1` (mixture of isomers) [Example 107, Methyl 8-(4-chlorophenyl)-4-{[(3S,4R)-1-(6-chloropyridazin-3-yl)-4-(2-fluoro-4-methoxyphenyl)pyrrolidin-3-yl]carbonyl}-1,4-diazocane-1-carboxylate], the EC50 on MC4 receptor was found to be 27.7 nM. Further, the Ki on MC4 receptor (MC4R) amounted to 96.4 nM; at MC3 receptor (MC3R), 683 nM. On CYP3A4, the inhibition at 3 µM worked out at 55.5%. The microsomal CLint at 1 μM in data set [1] was 47 µL/min/mg.

`CS(=O)(=O)N1CCN(C(=O)[C@@H]2CN(c3ccc(C#N)nn3)C[C@H]2c2ccc(Cl)cn2)CCC[C@H]1c1ccc(Cl)cc1` [Example 102] registered an EC50 at MC4 receptor of 12 nM. Besides, the Ki on MC4 receptor (MC4R) is 174 nM; at MC3 receptor (MC3R), 545 nM. Also, the inhibition at 3 µM on CYP3A4 was found to be 65%. The microsomal CLint at 1 μM in data set [1] worked out at 16 µL/min/mg.

With `COc1ccc([C@@H]2CN(C(C)(C)C)C[C@H]2C(=O)N2CCCC(c3ccc(Cl)cc3)N(S(C)(=O)=O)CC2)c(F)c1` (mixture of isomers) [Example 92], the EC50 at MC4 receptor amounted to 274 nM. For the same molecule, the figures for the Ki on MC4 receptor (MC4R) and at MC3 receptor (MC3R) were 1770 nM and 17900 nM, respectively. The inhibition at 3 µM at CYP3A4 was determined as 33.5%. Moreover, in data set [1], the microsomal CLint at 1 μM was 32.4 µL/min/mg.
